Molecules are shown by their SMILES.

A short description of the data set: Phenomenex Kinetex C18, 150 × 2.1 mm, 1.7 µm, 30 °C, 0.3 mL/min; A: water + 0.1% formic acid; B: acetonitrile + 0.1% formic acid; gradient (min/%B) 0/2 14/100 17/100 17/2 25/2. As to conditions: stereoisomer not certain.
Take `CC12CCC(=O)C=C1CCC1C2C(O)CC2(CO)C(C(=O)CO)CCC12` (stereo not given): the LC retention time was found to be 7.34 min.
Take `CC12CCC(O)CC1CCC1C2CCC2(C)C(C(=O)CO)CCC12` (stereo not given): the LC retention time is 11.3 min.
Consider `CC(=O)C1(O)CCC2C3CCC4=CC(=O)CCC4(C)C3CCC21C` (stereo not given), for which the LC retention time is 10.9 min.
Next, `CC12CCC(=O)C=C1CCC1C2C(O)CC2(C)C(O)CCC12` (stereo not given): 8.2 min; `CC12CCC(=O)CC1CCC1C2C(O)CC2(C=O)C(C(=O)CO)CCC12` (stereo not given): 7.97 min; `CC12CCC3c4ccc(O)cc4CCC3C1C(O)CC2O` (stereo not given): 7.33 min.
In the case of `CC12CCC3C(CCC4=CC(=O)CCC43C)C1CCC2=O` (stereo not given) it was 10.8 min.
In the case of `CC12CCC3C(C(O)CC4CC(O)CCC43C)C1CC(O)C2` (stereo not given) it was 7.39 min.
Regarding `CC(O)C1(O)CCC2C3CCC4CC(O)CCC4(C)C3C(=O)CC21C` (stereo not given), the LC retention time was 8.66 min.
Next, `O=CC12CC(O)C3C4CCC(=O)C=C4CCC3C1CCC2C(=O)CO` (stereo not given): 7.1 min; `CC12CCC(O)CC1CCC1C2C(=O)CC2(C)C1CCC2(O)C(=O)CO` (stereo not given): 8.38 min.
Regarding `CC12CCC3c4ccc(O)cc4CCC3C1C(O)CC2=O` (stereo not given), the LC retention time turned out to be 7.7 min.
Turning to `CC12CCC(=O)C=C1CCC1C2C(=O)CC2(C)C1CCC2(O)C(=O)CO` (stereo not given), the LC retention time was 7.75 min.
In the case of `CC12CCC(O)CC1CCC1C2C(=O)CC2(CO)C(C(=O)CO)CCC12` (stereo not given) it was 7.57 min; in that of `COc1cc2c(cc1O)CCC1C2CCC2(C)C(O)CCC12` (stereo not given), 10.5 min; in that of `CC(=O)C1=CCC2C3CCC4=CC(=O)CCC4(C)C3CCC12C` (stereo not given), 12.7 min.
In the case of `CC12CCC3C(CCC4CC(OS(=O)(=O)O)CCC43C)C1CCC2=O` (stereo not given) it was 10.5 min; in that of `CC12CCC3c4ccc(O)c(O)c4CCC3C1CCC2=O` (stereo not given), 8.06 min; in that of `COc1cc2c(cc1O)CCC1C2CCC2(C)C(=O)CCC12` (stereo not given), 11.3 min.
In the case of `CC12CC(=O)C3C(CCC4=CC(=O)CCC43C)C1CCC2=O` (stereo not given) it was 8.68 min.
As for `CC12CCC3C(CCC4=CC(=O)CCC43C=O)C1CCC2=O` (stereo not given), the LC retention time amounted to 9.42 min.
In the case of `CC12CCC(=O)C=C1CCC1C2C(=O)CC2(C)C(C(=O)CO)CCC12` (stereo not given) it was 8.53 min; in that of `CC12CCC3c4ccc(OS(=O)(=O)O)c(O)c4CCC3C1CCC2=O` (stereo not given), 7.73 min; in that of `CC12CCC(=O)C=C1CC(O)C1C2CCC2(C)C(O)CCC12` (stereo not given), 7.06 min.
For `CC12CC(O)C3C(CCC4=CC(=O)CCC43C)C1CCC2=O` (stereo not given), the LC retention time was determined as 8.87 min.
In the case of `CC12CCC(=O)C=C1CCC1C2C(O)CC2(CO)C1CCC2(O)C(=O)CO` (stereo not given) it was 6.52 min; in that of `CC(CCC(=O)O)C1CCC2C3CCC4CCCCC4(C)C3CC(O)C12C` (stereo not given), 16.7 min.
On to `CC12CCC(O)C=C1CCC1C2CCC2(C)C(O)CCC12` (stereo not given), for which the LC retention time turned out to be 9.76 min.
In the case of `CC(=O)C1(O)CCC2C3CCC4=CC(=O)CCC4(C)C3C(O)CC21C` (stereo not given) it was 8.8 min.
For `CC12CCC3C(CCC4=CC(=O)CCC43CO)C1CCC2O` (stereo not given), the LC retention time was 7.3 min.
Turning to `CC12CCC3C(CC=C4CC(=O)CCC43C)C1CCC2=O` (stereo not given), the LC retention time is 11 min.
Take `CC12CCC3c4ccc(O)cc4C(O)CC3C1CCC2=O` (stereo not given): the LC retention time amounted to 7.97 min.
Next, `CC12CCC(=O)C=C1CCC1C2CCC2(C)C(OS(=O)(=O)O)CCC12` (stereo not given): 9.81 min; `CC12CCC3C(C(O)CC4CC(O)CCC43C)C1CCC2=O` (stereo not given): 8.74 min.
In the case of `COc1cc2c(cc1O)C1CCC3(C)C(=O)CCC3C1CC2` (stereo not given) it was 9.83 min; in that of `CC12CCC3C(CC=C4CC(OS(=O)(=O)O)CCC43C)C1CCC2=O` (stereo not given), 9.91 min.
Next, `CC(O)C1(O)CCC2C3CCC4CC(O)CCC4(C)C3CCC21C` (stereo not given): 11 min; `CC12CCC(=O)CC1CCC1C2CCC2(C)C(OS(=O)(=O)O)CCC12` (stereo not given): 10.6 min; `CC(C(=O)O)C1CCC2C3C(O)CC4CC(O)CCC4(C)C3CC(O)C12C` (stereo not given): 8.37 min.
Regarding `CC12CCC3C(CCC4=CC(=O)CCC43CO)C1CCC2=O` (stereo not given), the LC retention time was 7.72 min.
Next, `CC12CCC3c4ccc(O)cc4C(O)CC3C1CCC2O` (stereo not given): 7.01 min; `CC(=O)C1C(O)CC2C3CCC4=CC(=O)CCC4(C)C3CCC21C` (stereo not given): 9.08 min.
Next, `CC12CCC3c4ccc(O)cc4CC(O)C3C1CCC2O` (stereo not given): 7.15 min; `CC12CCC3C4CCC(=O)CC4CCC3C1CCC2O` (stereo not given): 9.72 min.
Next, `COc1c(O)ccc2c1CCC1C2CCC2(C)C(=O)CCC12` (stereo not given): 9.74 min.
With `CC(O)C1CCC2C3CCC4CC(=O)CCC4(C)C3CCC12C` (stereo not given), the LC retention time was found to be 13.9 min.
In the case of `CC12CCC(=O)C=C1CCC1C2CCC2(C)C1CCC2(O)C(=O)CO` (stereo not given) it was 9.04 min; in that of `CC12CCCC1C1CCC3CC(O)CCC3(C)C1CC2` (stereo not given), 12.9 min.
`CC12CCC3C(C(O)CC4=CC(=O)CCC43C)C1CCC2=O` (stereo not given): the LC retention time was 7.78 min.
Next, `CC12CCC3c4ccc(O)cc4C(=O)CC3C1CC(O)C2O` (stereo not given): 6.59 min; `COc1cc2c(cc1O)C1CCC3(C)C(O)CCC3C1CC2` (stereo not given): 9.26 min.
Next, `CC12C=CC(=O)CC1CCC1C2CCC2(C)C(O)CCC12` (stereo not given): 9.97 min; `CC12CCC3C4=CC(=O)C(=O)C=C4CCC3C1CCC2O` (stereo not given): 7.58 min.
Next, `CC12CCC(O)CC1=CCC1C2CCC2(C)C1CCC2(O)C(=O)CO` (stereo not given): 8.44 min; `CC(O)C1(O)CCC2C3CCC4=CC(=O)CCC4(C)C3CCC21C` (stereo not given): 9.92 min; `CC12CCC3C(C(=O)CC4CC(O)CCC43C)C1CCC2=O` (stereo not given): 8 min.
Turning to `CC12CCC3C(CC(O)C4CC(O)CCC43C)C1CCC2O` (stereo not given), the LC retention time is 8.18 min.
Next, `CC(O)C1CCC2C3CCC4=CC(=O)CCC4(C)C3CCC12C` (stereo not given): 12 min.
In the case of `CC12CC(=O)C3C(CCC4CC(O)CCC43C)C1CCC2C(O)CO` (stereo not given) it was 8.54 min; in that of `CC12CCC(=O)C=C1CCC1C2C(O)CC2(C=O)C(C(=O)CO)CCC12` (stereo not given), 7.15 min.
Next, `CC12CCC(=O)C=C1CCC1C2C(O)CC2(C)C(C(=O)CC(=O)O)CCC12` (stereo not given): 9.18 min.
As for `CC12CCC(O)CC1CCC1C2CC(O)C2(C)CCC(O)C12` (stereo not given), the LC retention time was 6.31 min.
Consider `CC12CCC(O)CC1=CCC1C2CCC2(C)C(O)C(=O)CC12` (stereo not given), for which the LC retention time is 8.03 min.
In the case of `CC12CCC(O)CC1CCC1C2CCC2(C)C1CCC2(O)C(=O)CO` (stereo not given) it was 10.1 min; in that of `CC12CCC(=O)C=C1CCC1C2CCC2(C)C1CCC2(O)CCO` (stereo not given), 10 min; in that of `CC12CCC(O)CC1=CC(O)C1C2CCC2(C)C(O)CCC12` (stereo not given), 7.81 min.
Next, `CC12CCC3c4ccc(O)cc4CCC3C1CC(=O)C2=O` (stereo not given): 7.82 min.
Next, `CC(=O)C1CCC2C3CCC4=CC(=O)CCC4(C)C3CCC12C` (stereo not given): 12.9 min.
As to `CC12CCC3c4ccc(O)cc4CCC3C1CCC2=O` (stereo not given), the LC retention time is 10.7 min.
`CC12CCC(O)CC1=CCC1C2CCC2(C)C(C(=O)CO)CCC12` (stereo not given): the LC retention time stood at 10.5 min.

For the origin of these results see the RepoRT retention time repository (doi:10.3390/metabo9050085).
